Test results as given in patent US20040166509A1, “Detecting hormonally active compounds” (priority 2002, published 2004).

Tests used:
[1] = tested on: estrogen receptors alpha, beta, and gamma, and Vtg 1 mRNA; test: Real-time PCR of ER and Vtg 1 mRNA in LMB liver; type: in vivo, largemouth bass (LMB); details: male LMB liver
Text: Experimental Design and Sample Collection: Adult male LMB were purchased from American Sports Fish Hatchery (Montgomery, Ala.) and maintained in fiberglass tanks as previously described (Larkin et al., Comp. Biochem. Physiol. B. Biochem. Mol. Biol. 133:543-557, 2002; Larkin et al., Marine Environ. Res. 54:395-399, 2002; and Larkin et al., Comparative Biochemistry and Physiology 133:543-557, 2002). Array technology as a tool to monitor exposure of fish to xenoestrogens. Marine Environ. Res., 2002; Bowman et al., Mol. Cell. Endocrinol. 196:67-77, 2002). Each fish was injected IP with either 50 mg/kg 4-NP (Fluka, St. Louis, Mo. # 74430), the combination of 50 mg/kg 4-NP and 1.0 mg/kg ICI 182,780 (Tocris Cookson), or vehicle, which consisted of ethanol and DMSO (Sigma, St. Louis, Mo. #5879). Each dose was dissolved in 1 ml of ethanol and then diluted to the appropriate concentration with DMSO. The fish were euthanized by submersion in a water bath containing 50-100 ppm […] 48 hours post injection and sacrificed by a sharp blow to the head followed by cervical transaction. The livers were excised and immediately flash frozen in liquid nitrogen. The frozen tissues were stored at −80° C. until RNA was isolated.
RNA Isolation: Isolation of total RNA from liver tissue was performed with the RNA Stat-60 reagent (Tel-test). Briefly, 30 mg-50 mg of tissue stored in RNA later was homogenized in 0.9 mls STAT 60, choloroform was added, and the mixture was centrifuged at 12,000 g for 15 minutes at 4° C. The extraction process was repeated and the pooled RNA was added to 500 μl isopropanol and allowed to precipitate at −20° C. for at least one hour. Following centrifugation at 12,000 g for 50 minutes, the pellet was washed with 70% ethanol, air dried and resuspended in an appropriate volume (50 μl-120 μl of RNA secure. The samples were treated with RNA secure (Ambion, Austin Tex. #7010) to inactivate contaminating RNases. All isolated RNA was treated with DNase solution (Ambion, Austin, Tex. #1906) following the manufacture's protocol. For all RNA samples, the quantity and quality of total RNA was assessed by spectrophotometric readings at 260 nm and by electrophoresis through a 1% formaldahyde agarose gel stained with ethidium bromide.
Real-Time PCR: Real time PCR was performed using reagents and a 5700 thermocycler purchased from Applied Biosystems (ABI, Foster City, Calif.). The nucleotide sequences of the primers for the ER subtypes and Vtg 1 are as follows: 5′, […] (SEQ ID NO:563) AND 5′[…] (SEQ ID NO:564). Probes and primers for the ER subtypes and Vtg 1 are described in Bowman et al., Ecotoxicology 8:399-416, 1999; and Bowman et al., Mol. Cell Endocrinol. 196:67-77, 2002. Each real time PCR reaction consisted of 0.01-0.2 μg of reverse transcribed total RNA from liver tissue, 1× universal Taqman master mix (ABI, Foster City, Calif.), and primers and probes in a 25 μl reaction. […] Statistical differences between the treatments were determined by one way analysis of variance with Dunnets post-hoc analysis.
Measurement of ER and Vtg 1 mRNA by real-time PCR: Real-time PCR is a sensitive assay that can be used to quantitate expression levels of genes. Using this technology, assays were designed to quantitate the expression of 4 genes, estrogen receptors alpha, beta, and gamma, and Vtg 1 in LMB following exposure to 4-NP and 4-NP/ICI 182,780. […]

[2] = tested on: hepatic RNA of LMB; test: LMB gene array (132 genes): hepatic gene expression after IP injection; type: in vivo, largemouth bass (LMB); details: male LMB liver, two-fold cutoff vs control; for LMB50-1 (clone 50-1) expression / LMB67-1 signal peptidase, endopeptidase expression: 48 h after single IP 4-NP 50 mg/kg
[3] = tested on: LMB genes (ER alpha, ER gamma, StAR); design: species or system largemouth bass (LMB); details: Table II, test not stated
[4] = tested on: hepatic mRNA of adult male SHMs; test: SHM cDNA macroarray (30 genes): hepatic gene expression profiles of exposed fish; type: in vivo, sheepshead minnow (SHM)
[5] = 48 h after single IP injection, 4-NP 50 mg/kg alone or with ICI 182,780 1.0 mg/kg, not significant
[6] = 48 h after single IP dose: E2 2.5 mg/kg or 4-NP 50 mg/kg
[7] = 48 h after single IP dose: E2 2.5 mg/kg or 4-NP 50 mg/kg, listed as NP
[8] = 48 h after single IP dose: E2 2.5 mg/kg, 4-NP 50 mg/kg or p,p′-DDE 100 mg/kg
[9] = 48 h after single IP dose: E2 2.5 mg/kg, 4-NP 50 mg/kg or p,p′-DDE 100 mg/kg, listed as NP

CCCCCCCCCc1ccc(O)cc1 [4-NP, para-nonylphenol]
Vtg 1 message levels increase over controls ([1]; 48 h after single IP 4-NP 50 mg/kg, p<0.05): approximately 40 fold | ER α mRNA increase over controls ([1]; 48 h after single IP injection, 4-NP 50 mg/kg alone (p<0.05) or with ICI 182,780 1.0 mg/kg (p<0.08)): 80 fold | ER β mRNA decrease vs controls [1, 5]: approximately 1.3 fold | ER γ mRNA decrease vs controls [1, 5]: ~2.6 fold | LMB50-1 (clone 50-1) expression [2]: down-regulated | LMB67-1 signal peptidase, endopeptidase expression [2]: up-regulated | LMB50-1 (clone 50-1) expression ([2]; listed as NP): Down reg NP; | LMB67-1 signal peptidase, endopeptidase expression ([2]; listed as NP): Up-reg NP | LMB5 vitellogenin-2A expression [2, 6]: Up reg E2; | LMB92-1 (unidentified clone 92-1) expression [2, 6]: up-regulated | LMB94-1 transferrin expression [2, 6]: down-regulated | LMB112-1 cathepsin (Aspartic protease) expression [2, 6]: up-regulated | LMB141 vitellogenin-3 expression [2, 6]: up reg E2; NP, | four Vtg genes expression [2, 6]: up-regulated (only genes that exhibit a two-fold or greater change in expression were considered to be differentially regulated) | LMB92-1 (unidentified clone 92-1) expression [2, 7]: up-reg E2; | LMB94-1 transferrin expression [2, 7]: Down-reg. | LMB83 vitellogenin-2 (Vtg 2) expression [2, 8]: up-reg E2; | LMB87 vitellogenin-1 (Vtg 1) expression [2, 8]: up-reg E2; | LMB97 choriogenin-3 expression [2, 8]: up-regulated | LMB108-1 choriogenin-2 expression [2, 8]: up-regulated | LMB97 choriogenin-3 expression [2, 9]: Up-reg E2; | LMB108-1 choriogenin-2 expression [2, 9]: Up-reg E2; NP; | LMB_ER-ALPHA ESTROGEN RECEPTOR ALPHA differentially expressed by [3]: up-reg E2; | Regulation ([4]; Estrogen receptor alpha (clone ID not given)): up-reg E2; EE2, | Regulation ([4]; clone SHM2-1: vitellogenin alpha (2)): up-reg E2; EE2, | Regulation ([4]; clone SHM11: Transferrin): dn-reg E2; EE2, | Regulation ([4]; clone SHM41: Ubiquitin-conjugating enzyme 9): up-reg NP | Regulation ([4]; clone SHM72-3: Coagulation Factor XI): up-reg E2; EE2, | Regulation ([4]; clone SHM76-2: Alphal-microglobulin/bikunin precursor (AMBP) protein): d-reg E2; EE2,
